Structures are written as SMILES.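 Tested at 5 concentrations; 48 h exposure; 96-well plates; endpoints linearly interpolated, else capped at highest concentration. At the GI50, growth is halved.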 Active and inactive are the calls of the source. No stated cut-off is given here; in the data, active = GI50 up to about 1.1 µM and inactive = higher.

Test systems include SNB-19; OVCAR-8; NCI-H460; HCT-15; CCRF-CEM; CAKI-1; SK-OV-3; COLO 205; A498; SN12C; Malme-3M; SW-620; NCI-H226; U-251; KM12.
Holding throughout (experiment): inhibition of tumour cell growth, NCI panel, 48 h

Consider `CC(=O)Nc1ccc(C(=O)NN2C(=O)C(Cl)C2c2ccc(O)cc2)cc1` (stereo not given), for which the GI50 is > 100 µM (inactive) in the assay with SNB-19; 77.3 µM (inactive) with OVCAR-8; > 100 µM (inactive) in the assay on NCI-H460; more than 100 µM in the assay with HCT-15; > 100 µM (inactive) in the assay with CCRF-CEM; > 100 µM (inactive) in the assay with CAKI-1. Moreover, the GI50 in the assay with SK-OV-3, with COLO 205, with A498, with SN12C, in the assay with Malme-3M and with SW-620 was > 100 µM (inactive) in each case. The GI50 in the assay on NCI-H226 and in the assay with U-251 was > 100 µM (inactive) throughout.
`COc1ccc2c(c1)C1(C=N2)CCN(C(C)=O)CC1`: the GI50 is > 100 µM (inactive) in the assay with OVCAR-8; > 100 µM (inactive) with NCI-H460; more than 100 µM in the assay with HCT-15; 57.7 µM (inactive) in the assay with KM12; > 100 µM (inactive) in the assay with CCRF-CEM; > 100 µM (inactive) in the assay with CAKI-1. For the same compound, the GI50 in the assay on SK-OV-3, in the assay with COLO 205, in the assay with A498, in the assay on Malme-3M, with SW-620 and with U-251 was > 100 µM (inactive) each time.
With `O=C(O)CCc1coc2ccc(O)cc12`, the GI50 in the assay with SNB-19 is > 100 µM (inactive); in the assay with OVCAR-8 it was > 100 µM (inactive); with NCI-H460, > 100 µM (inactive); in the assay with HCT-15, more than 100 µM; in the assay on CCRF-CEM, > 100 µM (inactive); in the assay on CAKI-1 it was > 100 µM (inactive). For the same compound, the GI50 in the assay on SK-OV-3, in the assay on COLO 205, in the assay with A498, in the assay with SN12C, with SW-620 and with U-251 was > 100 µM (inactive) each time.
Turning to `CCOC(=O)/C(C#N)=C/c1[nH]c(C(=O)OCc2ccccc2)c(C)c1C`, the GI50 was > 100 µM (inactive) in the assay on SNB-19; > 100 µM (inactive) in the assay with OVCAR-8; > 100 µM (inactive) in the assay with NCI-H460; more than 100 µM with HCT-15; > 100 µM (inactive) with KM12; > 100 µM (inactive) with CCRF-CEM. Besides, the GI50 with CAKI-1, in the assay with SK-OV-3, in the assay on COLO 205, in the assay on SN12C, in the assay on Malme-3M and in the assay with SW-620 was > 100 µM (inactive) each time. Moreover, the GI50 in the assay with U-251 is > 100 µM (inactive).
For the compound `CCc1cc(Cc2ccc(C)c(NC(=O)C(=O)C3C(=O)NC(=O)NC3=O)c2CC)cc(C)c1NC(=O)C(=O)C1C(=O)NC(=O)NC1=O`, the GI50 in the assay with SNB-19 was > 100 µM (inactive); in the assay with OVCAR-8, > 100 µM (inactive); in the assay with NCI-H460, > 100 µM (inactive); in the assay on HCT-15 it was more than 100 µM; in the assay with KM12 it was > 100 µM (inactive); in the assay on CCRF-CEM, > 100 µM (inactive). For the same compound, the GI50 with CAKI-1 was 41.8 µM (inactive); with SK-OV-3, > 100 µM (inactive); in the assay on COLO 205, > 100 µM (inactive); in the assay on A498 it was > 100 µM (inactive); in the assay with Malme-3M, > 100 µM (inactive); with SW-620, > 100 µM (inactive). Besides, the GI50 with U-251 was > 100 µM (inactive).
As for `COc1ccc2nc(NC(=O)C(=O)C(C(=O)c3ccccc3-c3ccccc3)C3OC(=O)c4ccccc43)sc2c1` (stereo not given), the GI50 with OVCAR-8 is 20.1 µM (inactive); in the assay on NCI-H460, 21.7 µM (inactive); in the assay on KM12 it was 21.6 µM (inactive); in the assay on CCRF-CEM, 15.5 µM (inactive); in the assay on SK-OV-3, 27.4 µM (inactive); with COLO 205, 20.5 µM (inactive). Also, the GI50 in the assay with A498 is 17.7 µM (inactive); with Malme-3M, 12.1 µM (inactive); in the assay with SW-620, 23.8 µM (inactive); in the assay on NCI-H226, 5.27 µM (inactive); in the assay with U-251 it was 12.8 µM (inactive).

(Values after ChEMBL document CHEMBL1201862, “PubChem BioAssay data set” (2004).)
